The values below come from publication PMC4012739, “Targeted inhibition of cell-surface serine protease Hepsin blocks prostate cancer bone metastasis” (Oncotarget, 2014).

The target in this experiment is T1, Hepsin (Homo sapiens, UniProt P05981).
T1 construct: gene HPN; Extracellular part of human Hepsin (amino acids 45-417), SRCR and trypsin-like serine protease domains
In words: chromogenic peptide (pyroGlu-Pro-Arg-pNA) protease assay with purified recombinant Hepsin; also pro-HGF cleavage. Type of experiment: biochemical.

Structures are written as SMILES. pIC50: −log10 of the molar value.

T1 sequence (P05981 45-162): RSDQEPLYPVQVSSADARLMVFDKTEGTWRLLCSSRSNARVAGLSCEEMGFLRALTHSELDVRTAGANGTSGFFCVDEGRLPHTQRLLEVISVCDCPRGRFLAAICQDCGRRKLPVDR
T1 sequence (P05981 163-417): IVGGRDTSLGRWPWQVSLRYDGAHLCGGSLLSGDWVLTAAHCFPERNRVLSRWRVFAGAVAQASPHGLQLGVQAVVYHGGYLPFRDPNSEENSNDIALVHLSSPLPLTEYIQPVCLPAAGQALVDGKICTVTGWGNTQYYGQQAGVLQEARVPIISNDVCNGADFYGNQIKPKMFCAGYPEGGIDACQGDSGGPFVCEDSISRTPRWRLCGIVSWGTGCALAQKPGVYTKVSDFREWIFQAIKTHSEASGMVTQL

As a reminder, the pIC50 is the negative decadic logarithm of the IC50, by convention in mol/L. Take `Brc1ccc(C2Nc3cccc4cccc(c34)N2)cc1` [HepIn-13]: the negative-log IC50 (pIC50) is 6.48.
